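Step 1: Grow cells in 96-well plates. Step 2: Expose to compound for 48 hours at 5 concentrations. Step 3: Interpolate endpoints linearly; if unreached, use highest concentration. GI50: concentration for 50% inhibition of growth. TGI is the concentration that stops growth completely.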
Key:
Experiment in all cases: NCI anticancer screen, dose series, 48 h
[1] = tested on: CCRF-CEM leukemia
[2] = tested on: HT29 colon
[3] = tested on: LOX IMVI melanoma
[4] = tested on: OVCAR-8 ovarian
[5] = tested on: SK-MEL-2 melanoma
[6] = tested on: SK-MEL-28 melanoma
[7] = tested on: SN12C renal
[8] = tested on: SNB-19 CNS
[9] = tested on: UO-31 renal
[10] = tested on: NCI/ADR-RES ovarian

| Compound | TGI [1] [µM] | TGI [2] [µM] | TGI [3] [µM] | TGI [4] [µM] | TGI [5] [µM] | TGI [6] [µM] | TGI [7] [µM] | TGI [8] [µM] | TGI [9] [µM] | GI50 [1] [µM] | GI50 [2] [µM] | GI50 [3] [µM] | GI50 [10] [µM] | TGI [10] [µM] | GI50 [4] [µM] | GI50 [5] [µM] | GI50 [6] [µM] | GI50 [7] [µM] | GI50 [9] [µM] | GI50 [8] [µM] |
| --- | --- | --- | --- | --- | --- | --- | --- | --- | --- | --- | --- | --- | --- | --- | --- | --- | --- | --- | --- | --- |
| CCCCCCCCCCCCCCCc1nc(SCC(=O)O)n[nH]1 | > 100 | > 100 | > 100 | > 100 | > 100 | > 100 | > 100 | > 100 | > 100 | – | – | – | – | – | – | – | – | – | – | – |
| OC1/C(=C/c2ccccc2)CNC/C1=C\c1ccccc1 (centres undefined) | > 100 | > 100 | > 100 | > 100 | – | > 100 | > 100 | > 100 | > 100 | – | – | – | – | – | – | – | – | – | – | – |
| C/C(=N\O)c1ccc(Nc2cc(-c3ccccc3)nc3c(O)cccc23)cc1 | 14.8 | 48.1 | 24 | 29.2 | 36.8 | 32.3 | 27.6 | – | 33.7 | 3.51 | 19.8 | 6.71 | 8.54 | 35.5 | 6.99 | 17.3 | 14.5 | 11.9 | 14.8 | – |
| Cn1c(=O)c2nc3sc4ccccc4c(=N)n3c2n(C)c1=O | > 100 | > 100 | > 100 | > 100 | > 100 | > 100 | > 100 | > 100 | > 100 | – | – | – | – | – | – | – | – | – | – | – |
| COc1ccccc1NC(=O)C(=O)C(C#N)CC(C)(C)C=O (centres undefined) | – | > 100 | > 100 | > 100 | > 100 | > 100 | > 100 | – | > 100 | – | – | – | – | > 100 | – | – | – | – | – | – |
| O=C1OC(/C=C/c2ccccc2)C(=O)C1=O (centres undefined) | > 100 | > 100 | – | – | > 100 | > 100 | – | > 100 | > 100 | – | – | – | – | – | – | – | – | – | – | – |
| COc1cc(/C=C/C(=O)c2ccc(SC)cc2)cc(OC)c1OC | 21.1 | 24.4 | – | 5.85 | 31.6 | 32.5 | 8.98 | 26.4 | 23 | 3.37 | 4.15 | – | 4.68 | 26.4 | 2.44 | 17 | 16.9 | 3.17 | 10.8 | 12.6 |
| CC12CCC(C)(c3cc(O)c(O)cc31)c1cc(O)c(O)cc12 | 11.1 | 33.2 | 35.4 | 57.9 | > 100 | 34.1 | 48.6 | 30.2 | 43.5 | – | – | – | – | – | – | – | – | – | – | – |
| O=c1c2ccc(Br)cc2nc(-c2ccccc2)n1NC1OC(CO)C(O)C(O)C1O (centres undefined) | > 100 | > 100 | – | > 100 | > 100 | > 100 | > 100 | > 100 | > 100 | – | – | – | – | – | – | – | – | – | – | – |
| CCOC(=O)/C(C#N)=C/c1[nH]c(C)c(C)c1C | > 100 | > 100 | > 100 | > 100 | > 100 | – | > 100 | > 100 | > 100 | – | – | – | – | – | – | – | – | – | – | – |
| O=C(NCCOCCO)c1ccc(O)cc1 | > 100 | – | > 100 | > 100 | – | > 100 | > 100 | – | > 100 | – | – | – | – | – | – | – | – | – | – | – |
| CCC1(O)CC(c2ccccc2)N(C)C(c2ccccc2)C1 (centres undefined) | > 100 | > 100 | > 100 | > 100 | > 100 | > 100 | > 100 | > 100 | > 100 | – | – | – | – | – | – | – | – | – | – | – |
| OC(c1cc2c(Cl)cc(Cl)cc2c2cc(C(F)(F)F)ccc12)C1CCCCN1 (centres undefined) | – | 3.71 | – | – | 4.12 | 3.62 | 3.38 | – | 2.99 | – | 1.97 | – | 1.77 | 3.64 | – | 2.27 | 1.96 | 1.8 | 1.41 | – |
| COc1cc(C2C(C(=O)Nc3ccccc3C)=C(C)NC(C)=C2C(=O)Nc2ccccc2C)ccc1O | > 100 | > 100 | – | > 100 | > 100 | > 100 | > 100 | > 100 | > 100 | – | – | – | – | – | – | – | – | – | – | – |
| C[C@]12CC[C@H](O)CC1CCC[C@@H]2O (some centres undefined) | > 100 | > 100 | > 100 | > 100 | > 100 | > 100 | > 100 | > 100 | > 100 | – | – | – | – | – | – | – | – | – | – | – |
| CCN(CC)[C@@H]1c2cc3c(cc2C(c2cc(OC)c(O)c(OC)c2)C2C(=O)CO[C@@H]21)OCO3 (some centres undefined) | > 100 | > 100 | > 100 | > 100 | > 100 | > 100 | > 100 | – | > 100 | – | – | – | – | – | – | – | – | – | – | – |
| Fc1cccc(C2SCc3nc4ccccc4n32)c1 (centres undefined) | > 100 | > 100 | – | > 100 | > 100 | > 10 | > 100 | > 100 | > 100 | – | – | – | – | – | – | – | – | – | – | – |
| Cc1cc(=O)[nH]c2c1C(=O)C(=O)C=C2 | – | > 100 | – | 73.9 | > 100 | > 100 | 32.7 | > 100 | > 100 | – | 38.2 | – | 18.4 | 40.7 | 32.7 | > 100 | > 100 | 16.8 | 77.3 | 42.7 |
| COc1cc(-c2cc(C(=O)N3CCN(C(=O)c4ccccc4NCc4cccs4)CC3)nc3cc(-c4ccccc4)nn23)cc(OC)c1OC | – | 15 | > 100 | > 100 | 15.6 | > 100 | > 100 | > 100 | > 100 | – | 3.78 | 6.04 | 2.6 | 9.29 | 30.3 | 3.73 | 9.62 | 29.1 | 6.99 | 8.99 |
| O=c1cc(/C=C/c2ccccc2)c2ccc(O/C(=C\c3ccccc3)c3nc4ccccc4c(=O)o3)cc2o1 | 66.5 | – | > 100 | > 100 | 77.7 | 34.5 | > 100 | > 100 | – | – | – | – | – | – | – | – | – | – | – | – |
| Cn1c(=O)ccc2cc(C(=O)c3ccccc3)ccc21 | > 100 | > 100 | > 100 | > 100 | > 100 | > 100 | > 100 | > 100 | – | – | – | – | – | – | – | – | – | – | – | – |
| COc1ccc2c(c1)[n+](=O)c(C(=O)C/C(=N\NC(=O)C[N+](C)(C)C)C(=O)Nc1cc(Cl)ccc1Cl)c(C)n2O | > 100 | > 100 | > 100 | > 100 | > 100 | > 100 | > 100 | > 100 | > 100 | – | – | – | – | – | – | – | – | – | – | – |

From PubChem BioAssay (NCI)
